The results in this text go back to PMC7505981, “Preparation of a whole cell catalyst overexpressing acetohydroxyacid synthase of Thermotoga maritima and its application in the syntheses of α-hydroxyketones” (Scientific Reports, 2020).

For the test, the target named is T1, TmcAHAS (large catalytic subunit of acetohydroxyacid synthase of Thermotoga maritima) (Thermotoga maritima, UniProt Q9WZ18).
T1 construct: gene TM_0548; catalytic subunit alone, without regulatory subunit; gene from genomic DNA in pET28a (NdeI/BamHI), N-terminal His6 tag, E. coli Rosetta(DE3), Ni-NTA purified, about 68 kDa on SDS-PAGE; forward primer after NdeI site encodes MLLDEI
T1 sequence (Q9WZ18 entry or part of it): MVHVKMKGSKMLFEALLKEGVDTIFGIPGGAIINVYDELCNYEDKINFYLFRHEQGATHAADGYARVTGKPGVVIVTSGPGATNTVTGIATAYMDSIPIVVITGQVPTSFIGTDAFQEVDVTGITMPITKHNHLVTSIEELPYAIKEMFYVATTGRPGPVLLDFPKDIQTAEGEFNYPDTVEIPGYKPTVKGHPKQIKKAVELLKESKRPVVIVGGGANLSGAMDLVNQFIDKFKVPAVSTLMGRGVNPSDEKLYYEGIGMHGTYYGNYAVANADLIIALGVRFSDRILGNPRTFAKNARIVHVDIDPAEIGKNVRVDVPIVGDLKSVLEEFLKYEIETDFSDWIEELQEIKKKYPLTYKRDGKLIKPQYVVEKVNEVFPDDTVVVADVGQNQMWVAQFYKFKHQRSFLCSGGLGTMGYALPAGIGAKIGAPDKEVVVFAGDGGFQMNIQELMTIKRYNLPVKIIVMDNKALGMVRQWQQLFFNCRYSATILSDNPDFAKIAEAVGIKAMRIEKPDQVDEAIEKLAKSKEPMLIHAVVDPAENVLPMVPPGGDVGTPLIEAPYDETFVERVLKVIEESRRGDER
The experiment in a line: photometric creatine/alpha-naphthol assay of acetoin at […] nm, Michaelis-Menten fit. The class given is biochemical. The following applies: 50 mM phosphate pH 8.0, 80 °C, 10 min, 10 μM FAD, 1 mM ThDP, 10 mM Mg2+; catalytic subunit alone; read-out: Km for pyruvate.

Consider `CC(=O)C(=O)O` [pyruvate], for which the Michaelis constant (Km) was 19.1 ± 1.6 mM.

A word on the Km: it is the substrate concentration at which the rate is half of its maximum.
